US20040157799A1, “Pharmaceutical uses of bisphosphonates” (priority 2004, published 2004)

Columns and labels:
[1] = tested on: prostate cancer patients with a history of metastatic bone disease; assay: double-blind, placebo-controlled clinical study of zoledronic acid: skeletal-related events; assay type: in vivo, human; details: for patients with at least one skeletal-related event: i.v. every 3 weeks, placebo 44.2% (N=208); for patients with pathologic fractures: placebo 22.1%; for median time to the first skeletal-related event: placebo 320 days
Source text: Skeletal-related events (SREs) are defined as pathologic bone fracture events, spinal cord compression events, surgery to bone, radiation therapy to bone (including the use of radioisotopes) and a change of antineoplastic therapy to treat bone pain. Thus, SREs are the primary end-points in this study. The key efficacy endpoints are the proportion of patients having at least one SRE and the time to first SRE.
Secondary objectives are to assess the effect of zoledronic acid therapy on pain scores, analgesic use, performance status, Quality of Life scores, time to termination of active study participation, and to assess the safety and tolerability of zoledronate. Changes in bone resorption and formation markers are also evaluated. Bone mineral density measurements are evaluated in patients at selected clinical centers. In addition, time to progression of disease in bone and time to overall progression of disease are evaluated.
This study is an international, multicenter, randomized, double-blind, placebo-controlled, parallel study. […] The rising serum PSA level is documented by three consecutively rising serum PSA measurements (i.e., the third PSA level is to be>the second PSA level which is >the first PSA level which is >the nadir serum PSA concentration achieved during first-line hormonal therapy for metastatic prostate cancer), each separated from the other by at least two weeks. The rising serum PSA level represents an “early” event in the development of progressive metastatic disease.
Patients are randomized in a double-blind fashion to receive either zoledronate 4 mg intravenously, or zoledronate 8 mg intravenously, or a placebo intravenous infusion every three weeks in addition to their antineoplastic therapy. The randomized treatment assignment ratio is to be 1:1:1. In addition, all patients are to receive 500 mg of calcium orally and a multivitamin tablet (containing 400-500 I.U. of vitamin D) daily throughout the study.
The occurrence of skeletal-related events (SRE's) is collected throughout the trial for each patient in order to determine the proportion of patients experiencing at least one SRE, the time to the first SRE, and the skeletal morbidity rate (see section 4). Time to progression of disease in bone is assessed centrally (central radiologist) by review of serial bone radiographic studies. Time to overall progression of disease is determined by the patient's treating physician: by evaluating the central assessments (central radiologist) of serial bone radiographic studies; by evaluating the central assessments (central radiologist) of appropriate serial radiographic studies of non-skeletal tumor sites, if present; by evaluating serial serum PSA levels; and by evaluating serial patient weight measurements. Quality of Life, performance status, health care utilization and productivity loss data, and pain, and analgesic use scores are determined serially throughout the study. This information is also collected for those patients who discontinue active therapy within 24 months from the date of randomization into the study. Information about adverse events which occur during the patient's clinical course is collected throughout the study.
The study is made up of two phases, phase 1, the Efficacy and Safety Phase, and phase 2, the Extension Phase. The primary efficacy analysis is performed at the completion of phase 1, the Efficacy and Safety Phase, which consists of 60 weeks (20 cycles) of study treatment. Phase 2 consists of an additional 36 weeks (12 cycles) of study therapy. The primary purpose of phase 2 is to obtain long-term zoledronate treatment safety and survival data, however efficacy data will continue to be collected. […] No interim analyses are planned. […]

[2] = tested on: prostate cancer cell lines; details: in vitro treatment (Brown et al.; Lee et al.); cited from earlier work
[3] = tested on: subcutaneous prostate cancer cell line tumours; details: subcutaneous prostate cancer cell line tumours (Corey et al.); cited from earlier work

What does the source list for `O=P(O)(O)C(O)(Cn1ccnc1)P(=O)(O)O` [zoledronic acid, 2-(imidazol-1yl)-1-hydroxyethane-1,1-diphosphonic acid]?
effect on skeletal-related events ([1]; 4 mg 15-minute infusions every 3 weeks, metastatic prostate cancer refractory to hormonal therapy): significantly reduce skeletal-related events; tolerability ([1]; 4 mg given as a 15-minute infusion): well-tolerated; efficacy in the treatment of bone metastases vs. placebo ([1]; prostate cancer patients, double blind, placebo-controlled): statistically significant efficacy benefit over placebo; patients with at least one skeletal-related event ([1]; zoledronic acid 4 mg group (N=214), p=0.021 vs. placebo): 33.2%; patients with pathologic fractures ([1]; zoledronic acid 4 mg group, p=0.015 vs. placebo): 13.1%; median time to the first skeletal-related event ([1]; zoledronic acid 4 mg group, p=0.011 vs. placebo): not reached; patients with at least one skeletal-related event ([1]; zoledronic acid 8/4 mg group (N=221), p=0.222 vs. placebo): 38.5%; patients with pathologic fractures ([1]; zoledronic acid 8/4 mg group, p=0.054 vs. placebo): 14.9%; median time to the first skeletal-related event ([1]; zoledronic acid 8/4 mg group, p=0.491 vs. placebo): 363 days; growth of prostate cancer cell lines [2]: significantly reduced the growth of the cell lines; tumour volume [3]: no significant decrease in tumour volume
